Reference: patent publication US20240148821A1, “PHARMACEUTICAL USE OF CYCLIC PEPTIDE COMPOUND” (CHUGAI SEIYAKU KABUSHIKI KAISHA, priority 2021, published 2024)
pIC50: −log10 of the molar value. Numbered stars: 1 amine (or outer) side, 2 acyl side, 3 side chain; on linkers, the order of the positions; unused ones are H or OH. Bridge positions count the residues as written; N and C are the ends. Square brackets hold non-standard residues; d marks the D form. Peptide text beside a SMILES is read from it. * marks the point of attachment. hPhe(3-Cl-4-CF3) = N[C@@H](CCc1ccc(C(F)(F)F)c(Cl)c1)C(=O)O; X49 = CN([C@@H](Cc1cccc(OC(F)(F)F)c1)C(=O)[*:2])[*:1]; NMePhe(3-CF3) = CN[C@@H](Cc1cccc(C(F)(F)F)c1)C(=O)O; NMePhe(3-F) = CN[C@@H](Cc1cccc(F)c1)C(=O)O; NMePhe(2-F) = CN[C@@H](Cc1ccccc1F)C(=O)O; NMeCha = CN[C@@H](CC1CCCCC1)C(=O)O; NMeGly(cPr) = CN[C@H](C(=O)O)C1CC1; NMeD = CN[C@@H](CC(=O)O)C(=O)O; NMeL = CN[C@@H](CC(C)C)C(=O)O; NMeV = CN[C@H](C(=O)O)C(C)C; d(β3hA) = C[C@@H](N)CC(=O)O; NMeA = CN[C@@H](C)C(=O)O; Piperidide = C1CCN(*)CC1; Ac5c = NC1(C(=O)O)CCCC1; Aze = O=C(O)[C@@H]1CCN1; Sar = CNCC(=O)O

Each compound was assayed on Human pancreatic cancer cell line AsPC-1 (G12D mutation Kras) (assay: AsPC-1 cell growth inhibition (AsPC-1 CGI)). Conditions: read-out: AsPC-1 cell growth inhibition, 50% growth inhibitory concentration (IC50 value); 96 hours, CellTiter-Glo, values classified in ranges.
Assay type: cell-based
Experimental: Test compounds were serially dilated with dimethyl sulfoxide, and 200 nL was then dispensed to a U-bottom 96-well plate using Labcyte Echo. […] The cell suspension was dispensed to a. plate containing a test compound at 100 μL per well and incubated at 37° C. in a 5% carbon dioxide gas incubator. 96 hours later, 80 μL of CellTiter-Glo (Promega) was added to each well and fluorescence was measured.

SMILES	pIC50
CC[C@H](C)[C@@H]1NC(=O)[C@H](CC(C)C)N(C)C(=O)C[C@@H](C(=O)N2CCCCC2)N(C)C(=O)[C@H](C(C)C)N(C)C(=O)C2(CCCC2)NC(=O)[C@@H]2CCCN2C(=O)[C@H](CCc2ccc(C(F)(F)F)c(Cl)c2)NC(=O)CN(C)C(=O)[C@H](CC2CCCCC2)N(C)C(=O)[C@@H]2CCN2C(=O)[C@H](C2CC2)N(C)C1=O [Compound 1553] ([NMeL]I[NMeGly(cPr)][Aze][NMeCha][Sar][hPhe(3-Cl-4-CF3)]P[Ac5c][NMeV][NMeD]-Piperidide; lactam N-11)	< 6.30
CC[C@H](C)[C@@H]1NC(=O)[C@H](CC(C)C)N(C)C(=O)C[C@@H](C)NC(=O)[C@H](C(C)C)N(C)C(=O)C2(CCCC2)NC(=O)[C@@H]2CCCN2C(=O)[C@H](CCc2ccc(C(F)(F)F)c(Cl)c2)NC(=O)CN(C)C(=O)[C@H](Cc2cccc(F)c2)N(C)C(=O)CN(C)C(=O)CN(C)C1=O [Compound 1556] (cyclo([Ac5c][NMeV][d(β3hA)][NMeL]I[Sar][Sar][NMePhe(3-F)][Sar][hPhe(3-Cl-4-CF3)]P))	< 6.30
CC[C@H](C)[C@@H]1NC(=O)[C@H](CC(C)C)N(C)C(=O)C[C@@H](C)NC(=O)[C@H](C(C)C)N(C)C(=O)C2(CCCC2)NC(=O)[C@@H]2CCCN2C(=O)[C@H](CCc2ccc(C(F)(F)F)c(Cl)c2)NC(=O)CN(C)C(=O)[C@H](Cc2cccc(OC(F)(F)F)c2)N(C)C(=O)CN(C)C(=O)CN(C)C1=O [Compound 1573] (cyclo([Ac5c][NMeV][d(β3hA)][NMeL]I[Sar][Sar][X49][Sar][hPhe(3-Cl-4-CF3)]P))	< 6.30
CC[C@H](C)[C@@H]1NC(=O)[C@H](CC(C)C)N(C)C(=O)C[C@@H](C)NC(=O)[C@H](C(C)C)N(C)C(=O)C2(CCCC2)NC(=O)[C@@H]2CCCN2C(=O)[C@H](CCc2ccc(C(F)(F)F)c(Cl)c2)NC(=O)CN(C)C(=O)[C@H](Cc2cccc(C(F)(F)F)c2)N(C)C(=O)CN(C)C(=O)CN(C)C1=O [Compound 1575] (cyclo([Ac5c][NMeV][d(β3hA)][NMeL]I[Sar][Sar][NMePhe(3-CF3)][Sar][hPhe(3-Cl-4-CF3)]P))	< 6.30
CC[C@H](C)[C@@H]1NC(=O)[C@H](C)N(C)C(=O)C[C@@H](C)NC(=O)[C@H](C(C)C)N(C)C(=O)C2(CCCC2)NC(=O)[C@@H]2CCCN2C(=O)[C@H](CCc2ccc(C(F)(F)F)c(Cl)c2)NC(=O)CN(C)C(=O)[C@H](CC2CCCCC2)N(C)C(=O)[C@@H]2CCN2C(=O)[C@H](C)N(C)C1=O [Compound 1578] (cyclo([Ac5c][NMeV][d(β3hA)][NMeA]I[NMeA][Aze][NMeCha][Sar][hPhe(3-Cl-4-CF3)]P))	< 6.30
CC[C@H](C)[C@@H]1NC(=O)[C@H](C)N(C)C(=O)C[C@@H](C(=O)N2CCCCC2)N(C)C(=O)[C@H](C(C)C)N(C)C(=O)C2(CCCC2)NC(=O)[C@@H]2CCCN2C(=O)[C@H](CCc2ccc(C(F)(F)F)c(Cl)c2)NC(=O)CN(C)C(=O)[C@H](CC2CCCCC2)N(C)C(=O)[C@@H]2CCN2C(=O)[C@H](CC2CCCCC2)N(C)C1=O [Compound 1580] ([NMeA]I[NMeCha][Aze][NMeCha][Sar][hPhe(3-Cl-4-CF3)]P[Ac5c][NMeV][NMeD]-Piperidide; lactam N-11)	< 6.30
CC[C@H](C)[C@@H]1NC(=O)[C@H](CC(C)C)N(C)C(=O)C[C@@H](C)NC(=O)[C@H](C(C)C)N(C)C(=O)C2(CCCC2)NC(=O)[C@@H]2CCCN2C(=O)[C@H](CCc2ccc(C(F)(F)F)c(Cl)c2)NC(=O)CN(C)C(=O)[C@H](COc2ccccc2Cl)N(C)C(=O)CN(C)C(=O)CN(C)C1=O [Compound 1582]	< 6.30
CC[C@H](C)[C@@H]1NC(=O)[C@H](CC(C)C)N(C)C(=O)C[C@@H](C)NC(=O)[C@H](C(C)C)N(C)C(=O)C2(CCCC2)NC(=O)[C@@H]2CCCN2C(=O)[C@H](CCc2ccc(C(F)(F)F)c(Cl)c2)NC(=O)CN(C)C(=O)[C@H](Cc2ccccc2F)N(C)C(=O)CN(C)C(=O)CN(C)C1=O [Compound 1585] (cyclo([Ac5c][NMeV][d(β3hA)][NMeL]I[Sar][Sar][NMePhe(2-F)][Sar][hPhe(3-Cl-4-CF3)]P))	< 6.30
